Reference: patent US9873705B2, “Vinylogous thioester compounds and methods of use” (THE TRUSTEES OF DARTMOUTH COLLEGE, priority 2015, dated 2018)

How the values were obtained:
[1] = test system: p62 and LC3B protein expression in U87-MG cells; assay: Western blot of autophagy markers p62 and LC3B; format: cell-based, human; conditions: U87-MG, Western blot, 2 μM Y102, 50 μM HCQ
Excerpt: Ras dysregulated tumors depend on autophagy to remove damaged mitochondria and allow for their survival. […] LC3B I is lipidated to form LC3B II following induction of autophagy. LC3B II is recruited and subsequently integrated into the autophagosome. p62 functions as an adaptor protein in autophagy by binding to both ubiquitin-labeled damaged cargo such as protein aggregates or mitochondria and LC3B II to facilitate cargo uptake into the autophagosome. Degradation of the cargo occurs when the autophagosome fuses with the lysosome; when autophagy is inhibited with hydroxychloroquine (HCQ), a drug that prevents acidification of the lysosome, both LC3B II and p62 accumulate as derogation of the autophagosome is prevented, making them valuable markers of autophagic flux.
The data for FIG. 4 was obtained as follows: U87-MG cells were plated in 6-well plates at a concentration of 500,000 cells/well and allowed to adhere overnight. Cells were treated for 12 h with either DMSO or 2 μM Y102, followed by an additional 12 h co-treatment with or without 50 μM HCQ. Following treatment, cells were harvested using 0.25% trypsin, rinsed with PBS, and lysed with 75 μL modified RIPA buffer (50 mM NaCl, 1% v/v nonidet P40, 0.5% w/v sodium deoxycholate, 0.05% w/v sodium dodecyl sulfate, 50 mM Tris pH 8.0) containing 1 mM NaVO4, 1 mM NaF, 1 mM phenylmethylsulfonyl fluoride, 0.1 μg/mL leupeptin, 100 μM benzamidine HCl, 1 μM aprotinin, 0.1 μg/mL soybean trypsin inhibitor, 0.1 μg/mL pepstatin, and 0.1 μg/mL antipain. Protein was quantified using a BCA assay kit (Pierce). 40 μg of protein prepared in 1× Laemmli sample buffer (50 mM Tris pH 6.8, 0.02% w/v bromophenol blue, 2% w/v sodium dodecyl sulfate, 10% v/v glycerol, 1% v/v beta-mercaptoethanol, 12.5 mM EDTA) was separated on a 4-15% polyacrylamide gel using sodium dodecyl sulfate-polyacrylamide gel electrophoresis. Protein was transferred to nitrocellulose membrane, blocked in 5% nonfat milk in TBST, and probed with primary antibodies anti-LC3BI/II (Cell Signaling, 1:1000, overnight at 4° C.), anti-p62/SQSTM-1 D-3 (Santa Cruz, 1:1000, 1 h at room temperature), or anti-α-tubulin B-1-2-5 (Santa Cruz, 1:10000, 1 h at room temperature) in 2% nonfat milk in TBST. Blots were incubated in 1:20,000 anti-rabbit HRP or 1:10,000 anti-mouse HRP secondary antibodies diluted in 2% nonfat milk in TBST for 1 h at room temperature. Film was exposed to standard ECL (Pierce)-coated blots and developed using a standard film processor.

[2] = test system: NF1 deficient cells compared to NF1 wild type cells; assay: Bafilomycin A1 dose response curve; format: cell-based; conditions: representative of two replicates
Excerpt: This graph is representative of two replicates.

| SMILES | p62 accumulation (autophagy marker) ([1]; 24 hours) | LC3B I/II conversion (LC3B II accumulation) ([1]; single agent) | sensitivity of NF1 deficient vs NF1 wild type cells [2] |
| --- | --- | --- | --- |
| CCN(CCO)CCCC(C)Nc1ccnc2cc(Cl)ccc12 (stereo not drawn) [HCQ, hydroxychloroquine, reference compound] | accumulation of p62 | LC3B I/II conversion as seen | – |
| CO/C1=C\C(C)=C\[C@@H](C)[C@@H](O)[C@@H](C)C/C(C)=C/C=C/[C@H](OC)[C@@H]([C@@H](C)[C@@H](O)[C@H](C)[C@@]2(O)C[C@@H](O)[C@H](C)[C@@H](C(C)C)O2)OC1=O [Bafilomycin A1] | – | – | selectively sensitive |
